Test results from publication PMC4010452, “Modulation of Mouse Embryonic Stem Cell Proliferation and Neural Differentiation by the P2X7 Receptor” (PLoS ONE, 2014).

Molecular target: T1, P2X7 receptor (Mus musculus, UniProt Q9Z1M0)
T1 construct: gene P2rx7
T1 sequence (Q9Z1M0 1-595): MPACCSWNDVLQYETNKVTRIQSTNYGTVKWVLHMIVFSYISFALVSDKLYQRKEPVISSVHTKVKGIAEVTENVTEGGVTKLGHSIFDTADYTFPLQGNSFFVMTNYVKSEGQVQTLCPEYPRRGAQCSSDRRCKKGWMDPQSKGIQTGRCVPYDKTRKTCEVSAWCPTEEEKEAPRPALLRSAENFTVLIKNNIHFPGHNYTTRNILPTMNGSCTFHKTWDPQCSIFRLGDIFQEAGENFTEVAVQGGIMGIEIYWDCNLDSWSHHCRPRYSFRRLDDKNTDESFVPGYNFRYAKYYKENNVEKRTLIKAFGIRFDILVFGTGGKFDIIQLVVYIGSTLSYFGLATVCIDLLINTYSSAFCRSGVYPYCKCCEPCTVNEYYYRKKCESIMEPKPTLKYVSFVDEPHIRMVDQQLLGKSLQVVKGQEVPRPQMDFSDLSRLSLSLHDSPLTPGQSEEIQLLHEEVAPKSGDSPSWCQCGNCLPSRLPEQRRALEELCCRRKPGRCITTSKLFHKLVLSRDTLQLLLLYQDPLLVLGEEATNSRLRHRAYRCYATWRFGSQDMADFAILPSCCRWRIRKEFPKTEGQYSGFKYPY
Assay: agonist-induced intracellular calcium microfluorimetry and single-cell calcium imaging in mouse E14Tg2A ES cells (native receptor)
Assay type: cell-based

Work on `Nc1ncnc2c1ncn2[C@@H]1O[C@H](COP(=O)(O)OP(=O)(O)OP(=O)(O)O)[C@@H](O)[C@H]1O` [ATP] yielded an EC50 of 4.1 ± 1.8 µM.
